US9012431B2, “Boron-containing small molecules as anti-inflammatory agents” (Anacor Pharmaceuticals, Inc., priority 2008, dated 2015)
Counter-ions that a name gives are not always drawn.

Assays:
[1] = tested on: T1, PDE4 partially purified from human U-937 myeloid leukemia cells; assay: PDE4 Assay (enzyme from U-937 cells, [3H]cAMP); assay type: biochemical; details: PDE4 from U-937 cells, Tris buffer pH 7.5, 20 minutes at 25° C.
T1 construct: PDE4 partially purified from human U-937 myeloid leukemia cells was used
Protocol: Test article and/or vehicle was incubated with 0.2 mg enzyme and 1 mM cAMP containing 0.01 mM [3H]cAMP in Tris buffer pH 7.5 for 20 minutes at 25° C. The reaction was terminated by boiling for 2 minutes and the resulting AMP is converted to adenosine by addition of 10 mg/ml snake venom nucleotidase and further incubation at 37° C. for 10 minutes. Unhydrolyzed cAMP is bound to AG1-X2 resin, and remaining [3H]Adenosine in the aqueous phase is quantitated by scintillation counting.

[2] = tested on: TNF-α; assay: Cytokine assay, TNF-α release from PBMC; assay type: cell-based; details: 1 μg/mL LPS; for IC50: supernatant at 24 hours; for inhibition at 10 µM: 24 hours
Protocol: (§1) The ability of the compounds described herein to inhibit pro-inflammatory cytokines or phsophodiesterases were tested.
(§2) Frozen human peripheral blood mononucleocytes (PBMC) were thawed and centrifuged. Cryopreservation media was aspirated off of the cell pellet, and the cells were resuspended in fresh culture media (CM) comprising RPMI 1640 and 10% FBS in 96 well plates. Test article was dissolved in DMSO to form a 10 mM sample (DMSO, 100%). The 10 mM samples were diluted to 100 μM in CM (DMSO, 1%), then further diluted to 10, 1, 0.1, 0.01 μM in 200 μL of CM (n=3). […] IL-23 was assayed using a commercial ELISA kit (R&D Systems).

[3] = tested on: IFN-γ; assay: Cytokine assay, IFN-γ release from PBMC; assay type: cell-based; details: human PBMC, 20 ug/mL PHA; for inhibition at 10 µM: 24 hours; for IC50: supernatant at 24 hours
Protocol: as §1, §2

[4] = tested on: IL-5; assay: Cytokine assay, IL-5 release from PBMC; assay type: cell-based; details: human PBMC, 20 ug/mL PHA; for inhibition at 10 µM: 48 hours; for IC50: supernatant at 48 hours
Protocol: as §1, §2

[5] = tested on: IL-2; assay: Cytokine assay, IL-2 release from PBMC; assay type: cell-based; details: human PBMC, 20 ug/mL PHA; for inhibition at 10 µM: 24 hours; for IC50: supernatant at 24 hours
Protocol: as §1, §2

[6] = tested on: IL-10; assay: Cytokine assay, IL-10 release from PBMC; assay type: cell-based; details: human PBMC, 20 ug/mL PHA; for IC50: supernatant at 48 hours; for inhibition at 10 µM: 48 hours
Protocol: as §1, §2

N#Cc1ccc(Oc2ccc3c(c2)COB3O)c(OC2CCCC2)c1 [D133, 3-(cyclopentyloxy)-4-(1-hydroxy-1,3-dihydrobenzo[c][1,2]oxaborol-5-yloxy)benzonitrile]
IC50 [1]: < 1 µM
IC50 ([2]; Homo sapiens, PBMC, 24 h): < 1 µM

N#Cc1ccc(Oc2ccc3c(c2)COB3O)cc1OCC(=O)O [D39, [2-Cyano-5-(1-hydroxy-1,3-dihydro-benzo[c][1,2]oxaborol-5-yloxy)-phenoxy]-acetic acid]
inhibition at 10 µM [3]: 30 to 60%
inhibition at 10 µM [4]: < 30%
inhibition at 10 µM [5]: 30 to 60%
inhibition at 10 µM ([2]; human PBMC): 30 to 60%

CCOC(=O)c1ccc(Oc2ccc3c(c2)COB3O)c(OC)c1 [D20, 5-(4-Ethoxycarbonyl-2-methoxyphenoxy)-1,3-dihydro-1-hydroxy-2,1-benzoxaborole]
IC50 [1]: < 1 µM
IC50 [3]: < 1 µM
IC50 [5]: < 1 µM
IC50 ([2]; Homo sapiens, PBMC, 24 h): < 1 µM

N#Cc1ccc(Oc2ccc3c(c2)COB3O)c(OCC2CCCC2)c1 [D135, 3-(cyclopentylmethoxy)-4-(1-hydroxy-1,3-dihydrobenzo[c][1,2]oxaborol-5-yloxy)benzonitrile]
IC50 [1]: < 1 µM
IC50 ([2]; Homo sapiens, PBMC, 24 h): < 1 µM

N#Cc1ccc(Oc2ccc3c(c2)COB3O)nc1NCCO [D132, 6-(1-hydroxy-1,3-dihydro-benzo[c][1,2]oxaborol-5-yloxy)-2-(2-hydroxy-ethylamino)-nicotinonitrile]
IC50 [3]: < 1 µM
IC50 [4]: < 1 µM
IC50 [5]: < 1 µM
IC50 ([2]; Homo sapiens, PBMC, 24 h): < 1 µM
IC50 [6]: < 1 µM

COc1nc(Oc2ccc3c(c2F)COB3O)ccc1C#N [D114, 6-(4-Fluoro-1-hydroxy-1,3-dihydrobenzo[c][1,2]oxaborol-5-yloxy)-2-methoxynicotinonitrile]
IC50 [3]: < 1 µM
IC50 [4]: < 1 µM
IC50 [5]: < 1 µM
IC50 ([2]; Homo sapiens, PBMC, 24 h): < 1 µM
IC50 [6]: > 10 µM

CC(C)(C)Nc1nc(Oc2ccc3c(c2)COB3O)ccc1C#N [D129, 2-tert-butylamino-6-(1-hydroxy-1,3-dihydro-benzo[c][1,2]oxaborol-5-yloxy)-nicotinonitrile]
IC50 [1]: < 1 µM
IC50 ([2]; Homo sapiens, PBMC, 24 h): < 1 µM

O=C(O)c1ccc(Oc2ccc3c(c2)COB3O)c(O)c1 [D18, 5-(4-Carboxy-2-hydroxyphenoxy)-1,3-dihydro-1-hydroxy-2,1-benzoxaborole]
IC50 [3]: > 10 µM
IC50 [5]: > 10 µM
IC50 ([2]; Homo sapiens, PBMC, 24 h): > 10 µM

O=C(NCCO)c1ccc(Oc2ccc3c(c2)COB3O)cc1 [D77, 4-(1-Hydroxy-1,3-dihydro-benzo[c][1,2]oxaborol-5-yloxy)-N-(2-hydroxy-ethyl)-benzamide]
IC50 [3]: 1 to 4 µM
IC50 [4]: > 10 µM
IC50 [5]: 1 to 4 µM
IC50 ([2]; Homo sapiens, PBMC, 24 h): > 10 µM
IC50 [6]: 4 to 10 µM

N#Cc1ccc(Oc2ccc3c(c2)COB3O)c(CN)c1 [D138, 5-(2-Aminomethyl-4-cyanophenoxy)-1,3-dihydro-1-hydroxy-2,1-benzoxaborole hydrochloride]
inhibition at 10 µM [3]: 30 to 60%
inhibition at 10 µM [4]: 60 to 90%
inhibition at 10 µM [5]: 60 to 90%
IC50 ([2]; human PBMC, hydrochloride): 1 to 4 µM
inhibition at 10 µM [6]: 30 to 60%

N#Cc1ccc(Oc2ccc3c(c2)COB3O)nc1O [D108, 2-hydroxy-6-(1-hydroxy-1,3-dihydrobenzo[c][1,2]oxaborol-5-yloxy)nicotinonitrile]
IC50 [1]: 4 to 10 µM

N#Cc1ccc(Oc2ccc3c(c2)COB3O)cc1C(=O)O [D8, 5-(3-Carboxy-4-cyanophenoxy)-1,3-dihydro-1-hydroxy-2,1-benzoxaborole]
IC50 [3]: > 10 µM
IC50 [4]: > 10 µM
IC50 [5]: 1 to 4 µM
IC50 ([2]; Homo sapiens, PBMC, 24 h): > 10 µM
IC50 [6]: > 10 µM

CC1CCN(C(=O)COc2cc(Oc3ccc4c(c3)COB4O)ccc2C#N)CC1 [D42, 4-(1-Hydroxy-1,3-dihydro-benzo[c][1,2]oxaborol-5-yloxy)-2-[2-(4-methyl-piperidin-1-yl)-2-oxo-ethoxy]-benzonitrile]
inhibition at 10 µM [3]: 90 to 100%
inhibition at 10 µM [4]: 60 to 90%
inhibition at 10 µM [5]: 90 to 100%
inhibition at 10 µM ([2]; human PBMC): 60 to 90%
inhibition at 10 µM [6]: 60 to 90%

OCc1ccc(Oc2ccc3c(c2)COB3O)nc1 [D64, 5-(5-(Hydroxymethyl)pyridin-2-yloxy)benzo[c][1,2]oxaborol-1 (3H)-ol]
IC50 [3]: 4 to 10 µM
IC50 [4]: > 10 µM
IC50 [5]: 4 to 10 µM
IC50 ([2]; Homo sapiens, PBMC, 24 h): 1 to 4 µM
IC50 [6]: 4 to 10 µM
